Laboratory results published in patent publication US20240287100A1, “ALKYLIDENE DERIVATIVES AS KRAS INHIBITORS” (NIKANG THERAPEUTICS, INC., priority 2021, published 2024).

Target: T1, K-Ras G12D (Homo sapiens, UniProt P01116, G12D)
T1 construct: AGS (Cobioer, CBP60476) cell lines which harbor KRAS G12D mutation; host or cells: AGS
Experiment: p-ERK Cellular 1-Plate Assay (AlphaLISA SureFire Ultra p-ERK1/2) in AGS cells
Assay type: cell-based
Conditions: AGS cells harboring KRAS G12D mutation, 3 h at 37° C., 5,000 cells per well
Description: p-ERK Cellular 1-Plate Assay
The ability of the compound of Formula (I) or a pharmaceutically acceptable salt thereof (test compound) to inhibit K-Ras G12D activity was tested using AGS (Cobioer, CBP60476) cell lines which harbor KRAS G12D mutation as described below.
AGS (Cobioer, CBP60476) were seeded in 384-well plates and cultured overnight (5,000 cells per well, 40 μl total volume). The following morning, cells were treated with test compound, with starting concentration at 10 μM and 3-fold dilution down to 0.5 nM for 3 h at 37° C. DMSO treatment served as control, p-ERK was then measured using AlphaLISA SureFire Ultra p-ERK1/2 (Thr202/Tyr204) Assay Kit (Perkin Elmer, cat #ALSU-PERK) following the manufacturer's instruction as follows.
Briefly, the culture medium was removed and 10 μl 1× lysis buffer was added to each well, followed by 10 minutes incubation on a plate shaker at room temperature. Acceptor mixture was prepared according to manufacturer's instruction. 5 μl acceptor mixture was added to the cell lysate and the plate was wrapped with foil, spun at 500 rpm for 10 s and incubated at RT for 60 min. Donor mixture was prepared under subdued light. 5 μl donor mixture was added to the cell lysate and the plate was spun at 500 rpm for 10s and incubated at RT for another 60 min. in the dark. Signal was then measured on a EnVision 2105 multimode plate reader. […]

T1 sequence (P01116 1-188 isoform P01116-2 G12D): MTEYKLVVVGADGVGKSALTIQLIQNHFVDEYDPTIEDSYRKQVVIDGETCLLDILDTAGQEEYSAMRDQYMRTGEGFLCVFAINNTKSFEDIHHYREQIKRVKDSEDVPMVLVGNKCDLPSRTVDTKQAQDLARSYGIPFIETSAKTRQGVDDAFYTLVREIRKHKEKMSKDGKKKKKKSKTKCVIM

Row | SMILES | EC50
1 | C#Cc1c(F)ccc2cccc(-c3ncc4c(N5CC6CCC(C)(C5)N6)nc(OC[C@]56CC(=C)CN5C[C@@H](F)C6)nc4c3F)c12 (stereo partly drawn) [Example 30, 7-(8-ethynyl-7-fluoronaphthalen-1-yl)-8-fluoro-2-(((2S,7aR)-2-fluoro-6-methylenetetrahydro-1H-pyrrolizin-7a(5H)-yl)methoxy)-4-(1-methyl-3,8-diazabicyclo[3.2.1]octan-3-yl)pyrido[4,3-d]pyrimidine] | 170 nM
2 | C#Cc1c(F)ccc2cccc(-c3ncc4c(N5CC6CCC5CN6)nc(OC[C@]56CC(=C)CN5C[C@H](F)C6)nc4c3F)c12 (stereo partly drawn) [Example 31, 2-(7-(8-ethynyl-7-fluoronaphthalen-1-yl)-8-fluoro-2-(((2R,7aR)-2-fluoro-6-methylenetetrahydro-1H-pyrrolizin-7a(5H)-yl)methoxy)pyrido[4,3-d]pyrimidin-4-yl)-2,5-diazabicyclo[2.2.2]octane] | > 100 nM
